Measurements published in patent US10280170B2, “Substituted 4,5,6,7-tetrahydro-pyrazolo[1,5-a]pyrazine derivatives and 5,6,7,8-tetrahydro-4H-pyrazolo[1,5-a][1,4]diazepine derivatives as Ros1 inhibitors” (Janssen Pharmaceutica NV, priority 2014, dated 2019).
Where two headings read alike, the source gives them in different places.

Tests used:
[1] = target: Ba/F3 cells containing Ros1 with a mutation at the gatekeeper residue (L2026M) (Homo sapiens, UniProt P08922, L2026M, cells depend on it, form not given); assay: Ba/F3-Ros1 cell proliferation assay, L2026M gatekeeper mutant; assay type: cell-based, murine; conditions: without IL-3
Method in brief: (§1)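 Alamar Blue read-out (resazurin, ex. 540 nm, em. 590 nm, 4 h at 37 °C) after 24 h compound exposure of 20000 Ba/F3-Ros1 cells per well. Cells carry WT, gatekeeper L2026M or crizotinib-resistant G2032R Ros1; medium RPMI-1640, 10% FBS, 2 mM L-Glutamine.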

[2] = tested on: HCC78 non-small cell lung cancer cells; assay: HCC78 cell proliferation assay; assay type: cell-based; conditions: for EC50: Homo sapiens, HCC78, 96 h, read-out: HCC-78 PROL pEC50 (converted)
Procedure: HCC78 Cell Proliferation Assay
Approximately 1000 HCC78 non-small cell lung cancer cells in 180 μl of cell culture medium (RPMI-1640, 10% FBS, 2 mM L-Glutamine, 10 mM Hepes, 1 mM sodium pyruvate, 4.5 g/L glucose, 1.5 g/L sodium bicarbonate, 25 μg/ml Gentamycin) were seeded in each well of a 96-well polystyrene, tissue-culture treated plate and incubated at 37° C. and 5% CO2. After 24 hours, compounds were diluted in cell culture medium from which 20 μl was added to the wells containing cells and incubated for 4 days at 37° C. and 5% CO2. A 5 mg/ml solution of the tetrazolium dye MTT was prepared in PBS (phosphate-buffered saline) and 25 μl was added to each well. After 2 hours the medium was removed and replaced by 125 μL of 4/1 DMSO/glycine buffer (0.1M glycine, 0.1M NaCl, pH 10.5) before absorbance was determined at 538 nm.

[3] = target: T1, Ros1 enzyme (Homo sapiens, UniProt P08922); assay: Ros1 enzymatic assay; assay type: biochemical; conditions: Ros1 enzymatic assay; for IC50: read-out: ROS1 pIC50 (converted)
T1 construct: 0.5 μg/ml Ros1 enzyme
Method in brief: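 Ros1 (0.5 μg/ml in enzyme mix) was combined with a substrate mix of biotinylated IRS-Tide (6 μg/ml) and 20 μM ATP spiked with 33P-ATP in 50 mM Tris-HCl pH7.5, 10 mM MgCl2, 1 mM EGTA, 0.01% Tween-20. Reaction ran 120 min at room temperature before EDTA stop.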

[4] = target: T2, Ba/F3 cells containing Ros1 wild-type protein (Homo sapiens, UniProt P08922, cells depend on it, form not given); assay: Ba/F3-Ros1 cell proliferation assay, wild-type Ros1; assay type: cell-based, murine; conditions: without IL-3
T2 construct: The background only speaks of 'a number of different unrelated proteins' and names SLC34A2-ROS1 for HCC78 cells
Method in brief: as §1

[5] = tested on: Ba/F3 cells containing Ros1 wild-type protein + IL-3; assay: Ba/F3-Ros1 cell proliferation counter-screen, wild-type protein in the presence of 10 ng/ml murine IL-3; assay type: cell-based; conditions: Mus musculus, BaF3, 24 h, read-out: BaF3-ROS1 + IL3 pIC50 (converted)
Method in brief: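 Ba/F3 cells expressing wild-type Ros1 were grown with 10 ng/ml murine IL-3 and test compound in RPMI-1640 with 10% FBS and 2 mM L-glutamine for 24 h at 37 °C, 5% CO2. Viability was then read as Alamar Blue (resazurin) fluorescence (ex 540/em 590 nm) after 4 h further incubation.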

[6] = counter-screen, wild-type, 10 ng/ml murine IL-3

Sequence of Ba/F3 cells containing Ros1 with a mutation at the gatekeeper residue (L2026M) (P08922 whole entry L2026M, form open): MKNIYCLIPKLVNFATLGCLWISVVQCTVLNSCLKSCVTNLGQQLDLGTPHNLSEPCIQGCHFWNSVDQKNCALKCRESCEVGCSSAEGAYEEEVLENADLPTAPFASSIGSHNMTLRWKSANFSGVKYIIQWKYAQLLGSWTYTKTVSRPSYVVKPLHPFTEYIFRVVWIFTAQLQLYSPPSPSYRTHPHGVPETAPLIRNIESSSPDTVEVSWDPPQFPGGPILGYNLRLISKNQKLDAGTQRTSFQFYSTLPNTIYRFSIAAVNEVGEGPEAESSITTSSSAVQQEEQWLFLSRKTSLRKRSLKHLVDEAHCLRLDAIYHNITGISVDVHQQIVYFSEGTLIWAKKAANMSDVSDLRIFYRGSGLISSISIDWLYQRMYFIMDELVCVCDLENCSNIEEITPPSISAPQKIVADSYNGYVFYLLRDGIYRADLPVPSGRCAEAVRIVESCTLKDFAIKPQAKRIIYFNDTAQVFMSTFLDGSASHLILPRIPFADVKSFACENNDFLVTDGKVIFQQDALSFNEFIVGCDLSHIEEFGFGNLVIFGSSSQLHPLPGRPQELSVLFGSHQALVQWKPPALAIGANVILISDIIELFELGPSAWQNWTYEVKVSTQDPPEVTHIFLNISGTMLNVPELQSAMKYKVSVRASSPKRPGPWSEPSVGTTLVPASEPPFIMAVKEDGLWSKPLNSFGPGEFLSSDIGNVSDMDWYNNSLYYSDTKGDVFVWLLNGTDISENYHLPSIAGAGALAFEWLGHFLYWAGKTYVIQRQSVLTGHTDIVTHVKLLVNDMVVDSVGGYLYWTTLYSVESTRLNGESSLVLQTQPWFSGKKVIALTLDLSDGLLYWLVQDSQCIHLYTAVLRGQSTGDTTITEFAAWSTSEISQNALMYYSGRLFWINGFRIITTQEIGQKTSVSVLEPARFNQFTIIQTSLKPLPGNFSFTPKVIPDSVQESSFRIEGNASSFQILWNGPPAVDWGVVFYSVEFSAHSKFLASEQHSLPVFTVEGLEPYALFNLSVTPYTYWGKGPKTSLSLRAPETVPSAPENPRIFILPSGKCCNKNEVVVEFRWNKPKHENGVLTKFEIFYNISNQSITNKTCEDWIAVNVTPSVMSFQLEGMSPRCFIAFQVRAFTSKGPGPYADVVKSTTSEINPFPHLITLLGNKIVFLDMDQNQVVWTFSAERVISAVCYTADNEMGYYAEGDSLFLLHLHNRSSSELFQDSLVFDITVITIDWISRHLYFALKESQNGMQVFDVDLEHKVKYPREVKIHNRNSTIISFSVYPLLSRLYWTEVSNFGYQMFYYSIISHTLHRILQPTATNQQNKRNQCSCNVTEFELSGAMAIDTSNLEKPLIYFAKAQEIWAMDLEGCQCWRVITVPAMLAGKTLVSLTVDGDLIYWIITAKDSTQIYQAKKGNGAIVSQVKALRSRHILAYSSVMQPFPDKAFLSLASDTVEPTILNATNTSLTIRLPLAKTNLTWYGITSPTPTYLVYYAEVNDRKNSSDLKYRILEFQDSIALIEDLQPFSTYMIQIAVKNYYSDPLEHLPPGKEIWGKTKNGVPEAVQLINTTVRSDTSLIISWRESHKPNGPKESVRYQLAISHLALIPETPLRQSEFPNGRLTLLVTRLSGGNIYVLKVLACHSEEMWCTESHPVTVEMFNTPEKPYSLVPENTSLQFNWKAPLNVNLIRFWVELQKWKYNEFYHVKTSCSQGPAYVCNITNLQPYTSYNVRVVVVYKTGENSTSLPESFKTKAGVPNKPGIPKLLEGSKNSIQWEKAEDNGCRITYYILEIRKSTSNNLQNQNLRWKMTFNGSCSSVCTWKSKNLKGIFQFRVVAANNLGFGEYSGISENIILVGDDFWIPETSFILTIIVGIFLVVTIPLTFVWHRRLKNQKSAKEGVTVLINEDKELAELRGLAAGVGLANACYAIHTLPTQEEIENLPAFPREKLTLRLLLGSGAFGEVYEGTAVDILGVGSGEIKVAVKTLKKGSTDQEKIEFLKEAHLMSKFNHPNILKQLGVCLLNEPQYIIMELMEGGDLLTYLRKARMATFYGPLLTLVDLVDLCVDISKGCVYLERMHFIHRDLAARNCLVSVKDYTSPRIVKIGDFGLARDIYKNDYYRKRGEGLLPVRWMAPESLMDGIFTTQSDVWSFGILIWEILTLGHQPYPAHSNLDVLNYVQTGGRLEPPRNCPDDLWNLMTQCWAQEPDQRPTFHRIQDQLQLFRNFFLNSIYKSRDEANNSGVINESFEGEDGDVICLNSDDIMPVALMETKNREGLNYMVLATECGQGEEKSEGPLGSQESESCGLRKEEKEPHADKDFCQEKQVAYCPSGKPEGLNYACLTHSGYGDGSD
T1 sequence (P08922 28-2347): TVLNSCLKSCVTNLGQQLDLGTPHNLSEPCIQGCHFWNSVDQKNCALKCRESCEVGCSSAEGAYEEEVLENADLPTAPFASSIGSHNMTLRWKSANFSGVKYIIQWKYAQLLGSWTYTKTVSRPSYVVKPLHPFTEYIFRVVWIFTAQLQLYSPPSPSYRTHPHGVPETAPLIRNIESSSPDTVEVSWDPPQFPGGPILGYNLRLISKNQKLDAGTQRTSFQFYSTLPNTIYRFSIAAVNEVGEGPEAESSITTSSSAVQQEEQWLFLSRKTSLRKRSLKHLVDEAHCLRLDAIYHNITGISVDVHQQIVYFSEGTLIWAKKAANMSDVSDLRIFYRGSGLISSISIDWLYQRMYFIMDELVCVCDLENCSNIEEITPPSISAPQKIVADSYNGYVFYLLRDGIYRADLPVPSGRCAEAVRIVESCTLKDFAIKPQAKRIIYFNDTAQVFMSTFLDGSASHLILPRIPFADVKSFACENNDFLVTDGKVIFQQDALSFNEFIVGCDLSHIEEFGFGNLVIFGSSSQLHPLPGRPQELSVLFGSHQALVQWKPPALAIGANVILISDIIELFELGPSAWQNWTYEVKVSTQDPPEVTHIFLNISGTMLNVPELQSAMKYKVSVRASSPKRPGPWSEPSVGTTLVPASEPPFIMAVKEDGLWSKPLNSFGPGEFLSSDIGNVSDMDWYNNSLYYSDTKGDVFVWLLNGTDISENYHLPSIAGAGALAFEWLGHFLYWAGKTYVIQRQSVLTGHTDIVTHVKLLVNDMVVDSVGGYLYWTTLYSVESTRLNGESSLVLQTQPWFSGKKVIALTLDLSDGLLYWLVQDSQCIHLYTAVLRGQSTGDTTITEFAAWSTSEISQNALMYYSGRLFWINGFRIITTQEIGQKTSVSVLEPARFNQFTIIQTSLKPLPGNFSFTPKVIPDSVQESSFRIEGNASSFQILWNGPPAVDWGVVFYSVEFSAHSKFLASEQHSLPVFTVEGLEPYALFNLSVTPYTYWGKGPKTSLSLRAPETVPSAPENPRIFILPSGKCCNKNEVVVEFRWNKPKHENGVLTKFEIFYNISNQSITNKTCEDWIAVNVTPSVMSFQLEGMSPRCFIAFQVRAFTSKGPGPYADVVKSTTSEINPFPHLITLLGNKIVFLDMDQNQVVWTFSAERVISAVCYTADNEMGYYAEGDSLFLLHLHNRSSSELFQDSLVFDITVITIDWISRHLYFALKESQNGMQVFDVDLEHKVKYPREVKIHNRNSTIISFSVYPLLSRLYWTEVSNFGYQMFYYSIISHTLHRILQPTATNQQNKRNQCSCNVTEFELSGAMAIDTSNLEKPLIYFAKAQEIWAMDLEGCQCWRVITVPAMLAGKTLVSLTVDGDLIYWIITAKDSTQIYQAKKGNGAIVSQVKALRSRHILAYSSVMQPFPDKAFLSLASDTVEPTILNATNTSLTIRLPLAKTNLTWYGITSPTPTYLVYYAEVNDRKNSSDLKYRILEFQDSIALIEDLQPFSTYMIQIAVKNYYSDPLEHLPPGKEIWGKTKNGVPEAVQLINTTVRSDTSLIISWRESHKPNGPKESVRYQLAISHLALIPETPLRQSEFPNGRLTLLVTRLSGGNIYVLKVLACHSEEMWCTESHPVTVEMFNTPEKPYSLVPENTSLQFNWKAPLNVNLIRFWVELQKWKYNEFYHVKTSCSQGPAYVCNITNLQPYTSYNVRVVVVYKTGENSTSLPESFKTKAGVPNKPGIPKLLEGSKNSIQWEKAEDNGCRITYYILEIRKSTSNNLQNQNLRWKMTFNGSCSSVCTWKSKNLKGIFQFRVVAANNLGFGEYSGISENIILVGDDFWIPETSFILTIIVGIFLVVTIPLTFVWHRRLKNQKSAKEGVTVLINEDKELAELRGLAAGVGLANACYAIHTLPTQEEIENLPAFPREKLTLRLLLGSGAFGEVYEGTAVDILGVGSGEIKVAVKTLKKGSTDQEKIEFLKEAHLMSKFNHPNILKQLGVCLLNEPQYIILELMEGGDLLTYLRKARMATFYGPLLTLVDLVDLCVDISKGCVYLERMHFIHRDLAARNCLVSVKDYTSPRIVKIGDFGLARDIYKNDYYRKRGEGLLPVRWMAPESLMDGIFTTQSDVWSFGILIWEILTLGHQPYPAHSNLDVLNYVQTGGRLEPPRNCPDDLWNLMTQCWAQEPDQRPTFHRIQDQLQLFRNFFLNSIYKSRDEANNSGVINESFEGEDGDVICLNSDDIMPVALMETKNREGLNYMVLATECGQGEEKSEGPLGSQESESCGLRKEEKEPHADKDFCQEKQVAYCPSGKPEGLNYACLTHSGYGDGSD
T2 sequence (P08922 whole entry, stated change not applied): as the sequence (P08922 whole entry L2026M, form open) above, with M2026L counted along it

Row | Structure (SMILES) | Ba/F3 Ros1 L2026M (-IL-3) pIC50 [1] | melting point | HCC-78 PROL pEC50 ([2]; HCC78 cells, 4 days, MTT) | IC50 [3] | BaF3-ROS1-IL3 pIC50 [4] | ROS1 pIC50 [3] | CC50 [5] | EC50 [2] | CC50 [5, 6] | EC50 ([2]; HCC78 cells, 4 days, MTT)
1 | CC(C)c1ccc(COc2ccc(-c3c(-c4ccncc4)nn4c3C(=O)N(C(C)CO)CC4)cc2)cc1 (single isomer, unassigned) [Compound 38] | 7.5 | 144 °C | 7.3 | 0.0126 µM | 7.9 | – | – | – | – | –
2 | CC(C)c1ccc(COc2ccc(-c3c(-c4ccncc4)nn4c3C(=O)N(CC(O)CO)CC4)c(F)c2)cc1 (stereo not shown) [Compound 22] | 7.4 | 188 °C | 7.7 | – | 7.8 | 7.9 | – | – | – | –
3 | CC(C)c1ccc(COc2ccc(-c3c(-c4ccncc4)nn4c3C(=O)N(CC(O)CO)CC4)cc2)cc1 (stereo not shown) [Compound 41] | 6.6 | 191 °C | 7.1 | 0.0316 µM | 7.4 | – | – | – | – | –
4 | CC(C)c1ccc(COc2ccc(-c3c(-c4ccncc4)nn4c3C(=O)NCC4)cc2)cc1OCCO [Compound 89] | 7.1 | – | – | 0.0316 µM | 7.6 | – | > 10 µM | 0.2 µM | – | –
5 | CC(C)c1ccc(COc2ccc(-c3c(-c4ccncc4)nn4c3C(=O)NCC4)cc2)cc1CC(O)CO (stereo not shown) [Compound 91] | 6.6 | – | – | 0.0316 µM | 7.3 | – | > 10 µM | 0.0631 µM | – | –
6 | CC(C)c1cc(F)c(COc2ccc(-c3c(-c4ccncc4)nn4c3C(=O)N(CC(O)CO)CC4)cc2)c(F)c1 (stereo not shown) [Compound 95] | – | 227 °C | 6.4 | 0.158 µM | 6.8 | – | – | – | > 10 µM | –
7 | CC(CO)c1ccc(COc2ccc(-c3c(-c4ccncc4)nn4c3C(=O)N(CCO)CC4)cc2)cc1 (stereo not shown) [Compound 128] | 6.2 | – | – | 1.26 µM | 6.6 | – | > 10 µM | 1 µM | – | –
8 | O=C1c2c(-c3ccc(OCc4ccc(C5CC5)nc4)cc3)c(-c3ccncc3)nn2CCN1CC(O)CO (stereo not shown) [Compound 140] | 5.8 | – | – | 0.251 µM | 6.4 | – | – | – | > 10 µM | 2 µM
9 | CC(C)c1ccc(C(CO)Oc2ccc(-c3c(-c4ccncc4)nn4c3C(=O)NCC4)cc2)cc1 (stereo not shown) [Compound 146] | 7.6 | – | – | 2 µM | 6.2 | – | – | – | > 10 µM | 3.98 µM
10 | CC(C)c1ccc(COc2ccc(-c3c(-c4ccncn4)nn4c3C(=O)N(CCOCCO)CC4)cc2)cc1 [Compound 162] | 7.1 | – | – | 0.0794 µM | 7.2 | – | > 10 µM | 0.398 µM | – | –
11 | CNC(=O)CN1CCn2nc(-c3ccncn3)c(-c3ccc(OCc4ccc(C(C)C)cc4)cc3)c2C1=O [Compound 164] | 6.7 | – | – | 0.158 µM | 7.0 | – | – | – | > 10 µM | 0.794 µM
12 | Fc1cc(OCc2ccc(C3CC3)cc2)ccc1-c1c(-c2ccncc2)nn2c1CNCC2 [Compound 184] | 6.6 | – | – | 0.1 µM | 7.3 | – | – | – | > 10 µM | 0.251 µM
13 | CC(C)c1ccc(COc2ccc(-c3c(-c4ccncc4)nn4c3CN(CCO)CC4)c(F)c2)cc1 [Compound 187] | 6.4 | – | – | 0.0794 µM | 7.2 | – | > 10 µM | 0.1 µM | – | –
14 | CC(C)c1ccc(COc2ccc(-c3c(-c4ccncc4)nn4c3C(=O)N(C)C(CO)C4)cc2)cc1 (stereo not shown) [Compound 196] | 6.4 | – | – | 0.158 µM | 6.9 | – | > 10 µM | 0.631 µM | – | –
15 | CC(C)c1ccc(COc2cc(F)c(-c3c(-c4ccncc4)nn4c3C(=O)N(CCO)CC4)cc2F)cc1 [Compound 203] | 8.0 | – | – | 0.00398 µM | 8.2 | – | > 10 µM | 0.01 µM | – | –
16 | O=C1c2c(-c3ccc(OCc4ccc(C5CC5)nc4)cc3F)c(-c3ccncc3)nn2CCN1CCO [Compound 207] | 6.5 | – | – | 0.02 µM | 7.1 | – | > 10 µM | 0.501 µM | – | –
17 | O=C1c2c(-c3ccc(OCc4ccc(C5CC5)nc4)cc3F)c(-c3ccncc3)nn2CCN1CC(O)CO (stereo not shown) [Compound 208] | 6.3 | – | – | 0.0631 µM | 6.8 | – | – | – | > 10 µM | 0.398 µM
18 | CNC(=O)CN1CCn2nc(-c3ccncc3)c(-c3ccc(OCc4ccc(C(C)C)cc4)cc3F)c2C1 [Compound 209] | 7.5 | – | – | 0.0631 µM | 7.5 | – | 5.01 µM | 0.501 µM | – | –
19 | CNC(=O)C(Oc1ccc(-c2c(-c3ccncc3)nn3c2C(=O)NCC3)cc1)c1ccc(C(C)C)cc1 (stereo not shown) [Compound 217] | 6.0 | – | – | 0.398 µM | 6.3 | – | – | – | > 10 µM | 3.16 µM
20 | C[Si](C)(C)c1ccc(COc2ccc(-c3c(-c4ccncc4)nn4c3C(=O)NCC4)cc2)cc1 [Compound 232] | 6.5 | – | – | 2 µM | 6.7 | – | – | – | > 10 µM | 2.51 µM
21 | CNCCc1cc(COc2ccc(-c3c(-c4ccncc4)nn4c3C(=O)NCC4)cc2)ccc1C(C)C [Compound 234] | 6.7 | – | – | 0.02 µM | 7.1 | – | > 10 µM | 0.126 µM | – | –
22 | CNCCc1cc(COc2ccc(-c3c(-c4ccncc4)nn4c3C(=O)N(CCO)CC4)cc2)ccc1C(C)C [Compound 235] | 6.5 | – | – | 0.0251 µM | 6.7 | – | – | – | > 10 µM | 0.316 µM
23 | CNCCc1cc(COc2ccc(-c3c(-c4ccncc4)nn4c3C(=O)N(C)CC4)cc2)ccc1C(C)C [Compound 236] | 7.4 | – | – | 0.0158 µM | 7.6 | – | – | – | 3.98 µM | 0.126 µM
